Test results taken from BindingDB's records for doi:10.1016/j.bmcl.2003.08.070 (Wyeth Research, 2003).

Experiments:
[1] = target: T1, Leukotriene B4 receptor 1 (Homo sapiens, UniProt Q15722); assay: (§1) Inhibitory concentration against LTB4 receptor determined in human neutrophils PMN assay
[2] = target: T1, Leukotriene B4 receptor 1; assay: ChEBML_99664; from the text: as §1
[3] = target: Leukotriene B4 receptor 1 (Mus musculus) (UniProt O88855); assay: Inhibitory concentration against LTB4 receptor determined in mast cell line MC-9 assay
Sequence of Leukotriene B4 receptor 1 (Mus musculus) (O88855 whole entry, looked up): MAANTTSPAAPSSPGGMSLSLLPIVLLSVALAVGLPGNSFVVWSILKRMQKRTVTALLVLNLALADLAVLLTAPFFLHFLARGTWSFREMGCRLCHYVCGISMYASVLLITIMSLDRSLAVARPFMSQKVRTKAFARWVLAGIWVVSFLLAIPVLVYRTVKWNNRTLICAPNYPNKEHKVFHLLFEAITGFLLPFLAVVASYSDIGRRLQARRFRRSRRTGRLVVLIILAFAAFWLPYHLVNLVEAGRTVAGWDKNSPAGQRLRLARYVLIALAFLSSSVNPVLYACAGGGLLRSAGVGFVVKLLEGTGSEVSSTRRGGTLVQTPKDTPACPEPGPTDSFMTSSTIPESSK

T1 sequence (Q15722 whole entry): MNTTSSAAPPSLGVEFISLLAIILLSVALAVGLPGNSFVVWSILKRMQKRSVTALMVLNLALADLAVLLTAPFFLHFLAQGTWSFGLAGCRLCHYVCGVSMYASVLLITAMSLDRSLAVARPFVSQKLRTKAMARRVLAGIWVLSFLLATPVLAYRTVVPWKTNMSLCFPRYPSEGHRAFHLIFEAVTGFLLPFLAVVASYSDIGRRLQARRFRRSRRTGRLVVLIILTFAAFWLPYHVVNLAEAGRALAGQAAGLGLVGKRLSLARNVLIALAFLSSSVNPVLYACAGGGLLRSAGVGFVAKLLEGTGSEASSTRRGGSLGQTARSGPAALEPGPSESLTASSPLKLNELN

## COc1cc(C(=O)O)ccc1Cc1cn(C(c2ccccc2)c2ccccc2)c2ccc(C)cc12 [4-(1-Benzhydryl-5-methyl-1H-indol-3-ylmethyl)-3-methoxy-benzoic acid]
[1]
  IC50: 0.4 µM

## COc1cc(C(=O)O)ccc1Cc1cn(C(c2ccccc2)c2ccccc2)c2ccc(Br)cc12 [4-(1-Benzhydryl-5-bromo-1H-indol-3-ylmethyl)-3-methoxy-benzoic acid]
[2]
  IC50: 0.4 µM
[3]
  IC50: 1.1 µM

## COc1cc(C(=O)O)ccc1Cc1cn(C(c2ccccc2)c2ccccc2)c2ccc([N+](=O)[O-])cc12 [4-(1-Benzhydryl-5-nitro-1H-indol-3-ylmethyl)-3-methoxy-benzoic acid]
[1]
  IC50: 0.5 µM
[3]
  IC50: 2.8 µM
